One assay deals with T1, MUTE+AD (control yeast) (Arabidopsis thaliana, UniProt Q9M8K6).
T1 construct: expressed in transfected cells; host or cells: yeast strain AH109
T1 sequence (Q9M8K6 1-202): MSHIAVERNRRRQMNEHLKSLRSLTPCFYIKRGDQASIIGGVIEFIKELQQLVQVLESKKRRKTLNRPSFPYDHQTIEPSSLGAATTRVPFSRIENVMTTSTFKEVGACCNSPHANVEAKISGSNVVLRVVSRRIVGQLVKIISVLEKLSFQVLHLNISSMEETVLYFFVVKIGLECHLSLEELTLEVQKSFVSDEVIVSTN
Put plainly: Y2H quantitative α-galactosidase assay, control pair MUTE+AD. The format is cell-based. The settings on record: individual replicates, listed as AYSJ929. The text has this: Supplement 41467_2024_53214_MOESM7_ESM.xlsx, sheet "Fig.6b" | column: a-galactosidase [milliunits /(ml x cell)]

A further assay addresses T2, FAMA_ACTL (Arabidopsis thaliana, UniProt Q56YJ8).
T2 construct: FAMA-ACTL (306-414); GST (N, cleaved yes); made in house; host or cells: E. coli BL21
Kind of assay: ITC direct binding. Details: species or system A. thaliana. The text has this: (§1) A. thaliana SCRM (1-494), ΔNSPCH (98-364), MUTE (1-202), ΔNFAMA (190-414), MUTEΔC (1-114), MUTER133A_R134A, MUTEE162A_E163A, MUTER133A_R134A_E162A_E163A, SCRM-ACTL (405-494), MUTE-ACTL (114-202), SPCH-ACTL (285-364), FAMA-ACTL (306-414), MUTE_ACTLR133A_R134A, MUTE_ACTLE162A_E163A, MUTE_ACTLR133A_R134A_E162A_E163A were cloned into pGEX-4T-1 vector with an N-terminal GST tag and a thrombin cleavage sequence. For protein expression, the constructs were transformed into E. coli strain BL21. For each transformant, a single colony was selected and incubated in 10 ml LB liquid media. The overnight-incubated E. coli suspensions were transferred to 1 L LB medium and incubated at 37 °C for around 2 h until the OD600 reached 0.4–0.6. The isopropyl β-D-1-thiogalactopyranoside ([…] of final concentration) was added to the cultures and the strains were incubated at 22 °C for a further 18 h. GST-fused proteins were purified using glutathione agarose resin. The soluble portion of the cell lysate was loaded onto a GST-Sepharose column. Nonspecifically bound proteins were removed by washing the column with 20 mM Tris pH 8.0, 200 mM NaCl. The bound GST-fused protein was eluted with 10 mm glutathione and 20 mM Tris pH 8.0, 200 mM NaCl. The GST-fused proteins were exchanged with phosphate-buffered saline buffer, and then the solution was treated with 50 μg of thrombin for 10–12 h at 16 ^οC. The GST portion of the protein was cleaved during thrombin digestion, and then the whole solution was reloaded onto the glutathione S-transferase column to obtain pure protein. The purified proteins were further purified by gel filtration on a Superdex-200 (GE) column using fast protein liquid chromatography and phosphate buffer (pH 7.2) as the eluent. The purity of the protein was checked by SDS-PAGE. For detailed lists of oligo DNA and plasmid information, see Supplementary Tables 5, 6, respectively.
(§2) Binding of the small molecule Stomidazolone (3) to SCRM, MUTE, SPCH, FAMA, MUTEΔC, MUTE_ACTL, SCRM_ACTL, SPCH_ACTL and FAMA_ACTL, MUTER133A_R134A, MUTEE162A_E163A, MUTER133A_R134A_E162A_E163A, as well as SCRM binding to MUTE in the presence and absence of Stomidazolone (3) / AYSJ1059 (5) /AYSJ1061 (6) was characterized at 30 °C using a Malvern PEAQ-ITC microcalorimeter. All the protein samples were dialyzed overnight using PBS buffer containing 2% DMSO and 1 mM DTT. Stomidazolone was dissolved in PBS buffer containing 2% DMSO and 1 mM DTT. Titrations were performed by injecting 1 × 0.5-μL and 12 × 3-μL or 1 × 0.75-μL and 18 × 2-μL or 1 × 0.2-μL and 25 × 1.3-μL aliquots of 1 mM Stomidazolone / AYSJ1059 / AYSJ1061 to 5-30 μM of protein in PBS buffer pH 7.4, containing 2% DMSO and 1 mM DTT. All titrations were carried out at least twice. The raw data were corrected using buffer and protein controls and analyzed using the software supplied by the manufacturer. See Supplementary Table 3 for details.

The target of the next assay is T3, MUTE_ACTLE162A_E163A (Arabidopsis thaliana, UniProt Q9M8K6, E162A/E163A).
T3 construct: MUTE-ACTL (114-202); made in house; host or cells: E. coli BL21
Kind of assay: ITC direct binding. Details: species or system A. thaliana.
Source text: as §1, §2

A further assay concerns the target T4, SPCH_ACTL (Arabidopsis thaliana, UniProt Q700C7).
T4 construct: SPCH-ACTL (285-364); GST (N, cleaved yes); made in house; host or cells: E. coli BL21
Kind of assay: ITC direct binding. On the set-up: species or system A. thaliana.
Source text: as §1, §2

Several values for one entry are separate records, joined by “and”; a condition that tells them apart may be missing. Equal values may be shown once.

One may read the Kd as a measure of binding affinity in units of concentration. A higher Kd goes with lower affinity.

T2 sequence (Q56YJ8 306-414): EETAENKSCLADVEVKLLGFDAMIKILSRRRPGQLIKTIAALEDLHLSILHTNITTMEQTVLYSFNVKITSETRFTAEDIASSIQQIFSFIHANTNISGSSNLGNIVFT
T3 sequence (Q9M8K6 114-202 E162A/E163A): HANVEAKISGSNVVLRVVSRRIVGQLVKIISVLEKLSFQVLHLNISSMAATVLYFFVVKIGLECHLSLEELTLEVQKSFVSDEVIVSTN
T4 sequence (Q700C7 285-364): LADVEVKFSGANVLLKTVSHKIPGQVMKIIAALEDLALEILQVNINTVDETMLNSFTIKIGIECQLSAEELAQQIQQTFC

Regarding `O=C1C(c2ccccc2)=NC(NS(=O)(=O)c2ccccc2)(c2ccccc2)N1S(=O)(=O)c1ccccc1` (stereo not drawn) [Stomidazolone], the a-galactosidase on MUTE+AD (control yeast) (10 µM) is 0.24 milliunits /(ml x cell) and 0.60 milliunits /(ml x cell) and 0.40 milliunits /(ml x cell); on MUTE+AD (control yeast) (50 µM), 0.22 milliunits /(ml x cell) and 0.36 milliunits /(ml x cell) and 0.19 milliunits /(ml x cell); at MUTE+AD (control yeast) (100 µM) it was 0.20 milliunits /(ml x cell) and 0.52 milliunits /(ml x cell) and 0.42 milliunits /(ml x cell). The “-T△S” value on FAMA_ACTL is 4.8 ± 0.2; at MUTE_ACTLE162A_E163A (MUTE_ACTL E162A_E163A) it was 3.1 ± 0.3; on SPCH_ACTL it was 3.4 ± 0.2. Also, the Kd on FAMA_ACTL is 110 ± 13.8 µM; on MUTE_ACTLE162A_E163A (MUTE_ACTL E162A_E163A) it was 85.5 ± 5.5 µM; on SPCH_ACTL it was 96.8 ± 7.6 µM. In addition, the “△H” value on FAMA_ACTL is listed as -8.2 ± 0.5; at MUTE_ACTLE162A_E163A (MUTE_ACTL E162A_E163A), -7.6 ± 0.5; at SPCH_ACTL it was -5.5 ± 0.3. Besides, the “△G” value at MUTE_ACTLE162A_E163A (MUTE_ACTL E162A_E163A) is given as -4.5 ± 0.2; at SPCH_ACTL, -2.1 ± 0.2. Also, the “increase in the Kd value versus wild-type MUTE” value on MUTE_ACTLE162A_E163A (authors' response to reviewers, data of the original Fig. S3) was approximately 5 fold.
